Measured values from US11845724B2, “USP30 inhibitors and uses thereof” (Vincere Biosciences, Inc., priority 2019, dated 2023).
Where two headings read alike, the source gives them in different places.

Legend:
[1] = biological target: USP30 (Homo sapiens (Human), UniProt Q70CQ3); assay: Dundee MALDI-TOF mass spectrometry assay (IC50); assay type: biochemical; conditions: USP30 25 ng/μl, K48-linked diubiquitin 5.6 μM, avg, read-out: Dundee IC50 μM (avg in vitro MS assay)
Procedure: Compounds were tested in a MALDI-TOF assay based on the paper by Ritorto et al. (Ritorto et al. Screening of DUB activity and specificity by MALDI-TOF mass spectrometry. Nat. […] USP30 (25 ng/μl) tested against K48-linked diubiquitin (5.6 μM). USP30 was diluted in a buffer containing 40 mM Tris, 0.01% BSA, 1 mM DTT and K48 in 40 mM Tris, 0.01% BSA. The compounds were pre-incubated with the USP30 for 5 mins at room temp before the K48 dimer addition. The assay mixture was then incubated for 45 mins at room temp. The assay was stopped by the addition of TFA to a final concentration of 2% (v/v). […] Then 250 nl of these solutions were spotted onto an MTP AnchorChip 1,536 TF and this is analysed on the Bruker rapifleX MALDI-TOF.

[2] = biological target: recombinant USP30 (amino acids 57-517 of the human sequence) (Homo sapiens (Human), UniProt Q70CQ3); assay: In vitro USP30 biochemical assay (Ubiquitin-Rhodamine)
[3] = USP30 IC50 μM (avg), Ubiquitin-Rhodamine substrate 25 nM, 1.5 nM recombinant USP30
[4] = read-out: USP30 IC50 μM (avg), Ubiquitin-Rhodamine substrate 25 nM, 1.5 nM recombinant USP30

recombinant USP30 (amino acids 57-517 of the human sequence), sequence (Q70CQ3 57-517): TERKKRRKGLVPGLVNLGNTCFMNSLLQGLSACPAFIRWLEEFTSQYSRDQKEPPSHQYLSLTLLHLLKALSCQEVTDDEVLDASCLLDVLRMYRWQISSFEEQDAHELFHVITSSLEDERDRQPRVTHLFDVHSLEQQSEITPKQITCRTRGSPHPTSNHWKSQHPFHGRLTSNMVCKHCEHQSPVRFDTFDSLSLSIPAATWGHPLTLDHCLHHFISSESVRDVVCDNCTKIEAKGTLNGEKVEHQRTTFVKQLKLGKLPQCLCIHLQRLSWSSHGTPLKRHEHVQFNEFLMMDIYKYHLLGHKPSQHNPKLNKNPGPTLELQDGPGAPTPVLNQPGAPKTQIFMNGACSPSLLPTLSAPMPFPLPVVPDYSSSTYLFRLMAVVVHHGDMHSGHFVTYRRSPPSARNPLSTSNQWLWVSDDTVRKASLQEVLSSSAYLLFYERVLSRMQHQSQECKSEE
USP30, sequence (Q70CQ3 whole entry): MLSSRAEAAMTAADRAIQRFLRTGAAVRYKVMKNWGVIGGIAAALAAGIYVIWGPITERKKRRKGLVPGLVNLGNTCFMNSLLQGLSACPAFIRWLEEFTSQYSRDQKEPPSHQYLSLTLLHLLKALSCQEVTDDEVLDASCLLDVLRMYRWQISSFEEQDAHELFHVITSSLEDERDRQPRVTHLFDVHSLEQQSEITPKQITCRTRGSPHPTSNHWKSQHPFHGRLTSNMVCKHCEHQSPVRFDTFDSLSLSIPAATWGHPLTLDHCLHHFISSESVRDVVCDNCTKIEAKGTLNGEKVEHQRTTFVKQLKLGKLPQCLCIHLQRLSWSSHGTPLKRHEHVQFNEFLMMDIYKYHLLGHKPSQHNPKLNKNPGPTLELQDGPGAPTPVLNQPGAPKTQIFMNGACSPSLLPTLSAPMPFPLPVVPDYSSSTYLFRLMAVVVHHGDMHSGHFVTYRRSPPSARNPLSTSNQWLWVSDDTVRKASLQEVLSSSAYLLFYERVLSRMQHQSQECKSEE

| SMILES | IC50 [1] [µM] | IC50 [2, 3] [µM] | IC50 [2, 4] [µM] |
| --- | --- | --- | --- |
| CC(C)(C)NS(=O)(=O)N1CCCc2c(NC(=O)[C@H](Cc3ccccc3)NC(=O)C3CCCCC3)cccc21 [Compound I-129, (S)-N-(1-(1-(N-tert-butylsulfamoyl)-1,2,3,4-tetrahydroquinolin-5-ylamino)-1-oxo-3-phenylpropan-2-yl)cyclohexanecarboxamide] | 1 to 10 | 1 to 10 |  |
| CN(C)CCNS(=O)(=O)c1ccc(NC(=O)[C@H](Cc2ccccc2)NC(=O)c2ccc(F)cc2)cc1 [Compound I-133, (S)-N-(1-(4-(N-(2-(dimethylamino)ethyl)sulfamoyl)phenylamino)-1-oxo-3-phenylpropan-2-yl)-4-fluorobenzamide] | 1 to 10 | 0.05 to 1 |  |
| CN(C(=O)c1ccc(F)cc1)[C@@H](Cc1ccccc1)C(=O)Nc1ccc(S(=O)(=O)NC23CC(C2)C3)cc1 [Compound I-72, (S)-N-(1-(4-(N-bicyclo[1.1.1]pentan-1-ylsulfamoyl)phenylamino)-1-oxo-3-phenylpropan-2-yl)-4-fluoro-N-methylbenzamide] | 1 to 10 | 1 to 10 |  |
| CCNS(=O)(=O)c1ccc(NC(=O)[C@H](Cc2ccccc2)NC(=O)c2ccc(F)cc2)cc1 [Compound I-5, (S)-N-(1-(4-(N-Ethylsulfamoyl)phenylamino)-1-oxo-3-phenylpropan-2-yl)-4-fluorobenzamide] | < 0.05 | 0.05 to 1 |  |
| O=C(N[C@@H](Cc1ccccc1)C(=O)Nc1ccc(S(=O)(=O)NC2COC2)cc1)c1cccc(F)c1 [Compound I-94, (S)-3-fluoro-N-(1-(4-(N-oxetan-3-ylsulfamoyl)phenylamino)-1-oxo-3-phenylpropan-2-yl)benzamide] | 0.05 to 1 | 0.05 to 1 |  |
| COc1cc(NC(=O)[C@H](Cc2ccccc2)NC(=O)c2ccc(F)cc2)ccc1S(=O)(=O)NC1COC1 [Compound I-147, (S)-4-fluoro-N-(1-(3-methoxy-4-(N-oxetan-3-ylsulfamoyl)phenylamino)-1-oxo-3-phenylpropan-2-yl)benzamide] | < 0.05 | 0.05 to 1 |  |
| COCCNS(=O)(=O)c1ccc(NC(=O)[C@H](Cc2ccccc2)NC(=O)c2ccc(F)cc2)cc1OC [Compound I-151, (S)-4-fluoro-N-(1-(3-methoxy-4-(N-(2-methoxyethyl)sulfamoyl)phenylamino)-1-oxo-3-phenylpropan-2-yl)benzamide] | < 0.05 | 0.05 to 1 |  |
| CCNS(=O)(=O)c1ccc(NC(=O)[C@H](Cc2ccccc2)NC(=O)c2ccc(F)cc2)cn1 [Compound I-105, (S)-N-(1-(6-(N-ethylsulfamoyl)pyridin-3-ylamino)-1-oxo-3-phenylpropan-2-yl)-4-fluorobenzamide] | 0.05 to 1 | 0.05 to 1 |  |
| O=C(N[C@@H](Cc1ccccc1)C(=O)Nc1ccc(S(=O)(=O)NC2CCC2)cc1)c1ccc(F)cn1 [Compound I-75, (S)-N-(1-(4-(N-cyclobutylsulfamoyl)phenylamino)-1-oxo-3-phenylpropan-2-yl)-5-fluoropicolinamide] | 0.05 to 1 | 0.05 to 1 |  |
| O=C(N[C@@H](Cc1ccccc1)C(=O)Nc1ccc(S(=O)(=O)NC23CC(C2)C3)cc1)c1ccc(F)cn1 [Compound I-73, (S)-N-(1-(4-(N-bicyclo[1.1.1]pentan-1-ylsulfamoyl)phenylamino)-1-oxo-3-phenylpropan-2-yl)-5-fluoropicolinamide] | < 0.05 | 0.05 to 1 |  |
| O=C(N[C@@H](Cc1ccccc1)C(=O)Nc1ccc(S(=O)(=O)NCCO)cc1)c1ccc(F)cc1 [Compound I-138, (S)-4-fluoro-N-(1-(4-(N-(2-hydroxyethyl)sulfamoyl)phenylamino)-1-oxo-3-phenylpropan-2-yl)benzamide] | < 0.05 | 0.05 to 1 |  |
| COc1cc(NC(=O)[C@H](Cc2ccccc2)NC(=O)c2ccc(F)cc2)ccc1S(=O)(=O)NC1CCOCC1 [Compound I-150, (S)-4-fluoro-N-(1-(3-methoxy-4-(N-(tetrahydro-2H-pyran-4-yl)sulfamoyl)phenylamino)-1-oxo-3-phenylpropan-2-yl)benzamide] | < 0.05 | 0.05 to 1 |  |
| O=C(N[C@@H](Cc1ccccc1)C(=O)Nc1ccc(S(=O)(=O)NCCN2CCOCC2)cn1)c1ccc(F)cc1 [Compound I-122, (S)-4-fluoro-N-(1-(5-(N-(2-morpholinoethyl)sulfamoyl)pyridin-2-ylamino)-1-oxo-3-phenylpropan-2-yl)benzamide] | 0.05 to 1 | 0.05 to 1 |  |
| O=C(N[C@@H](Cc1ccccc1)C(=O)Nc1cccc2c(S(=O)(=O)NC3COC3)cccc12)c1ccc(F)cc1 [Compound I-131, (S)-4-fluoro-N-(1-(5-(N-oxetan-3-ylsulfamoyl)naphthalen-1-ylamino)-1-oxo-3-phenylpropan-2-yl)benzamide] | 0.05 to 1 | 0.05 to 1 |  |
| O=C(N[C@@H](Cc1ccccn1)C(=O)Nc1ccc(S(=O)(=O)NC2CCC2)cc1)c1ccc(F)cc1 [Compound I-142, (S)-N-(1-(4-(N-cyclobutylsulfamoyl)phenylamino)-1-oxo-3-(pyridin-2-yl)propan-2-yl)-4-fluorobenzamide] | < 0.05 | 0.05 to 1 |  |
| CC(C)(C)NS(=O)(=O)c1ccc(NC(=O)[C@H](Cc2ccccc2)NC(=O)c2cccnc2)cc1 [Compound I-87, (S)-N-(1-(4-(N-tert-butylsulfamoyl)phenylamino)-1-oxo-3-phenylpropan-2-yl)nicotinamide] | 0.05 to 1 | 0.05 to 1 |  |
| CC(C)(C)NS(=O)(=O)c1ccc(NC(=O)[C@H](Cc2ccccc2)NC(=O)c2ccc(F)cc2)cc1F [Compound I-156, (S)-N-(1-(4-(N-tert-butylsulfamoyl)-3-fluorophenylamino)-1-oxo-3-phenylpropan-2-yl)-4-fluorobenzamide] | < 0.05 |  | < 0.05 |
| CCNS(=O)(=O)N1CCCc2c(NC(=O)[C@H](Cc3ccccc3)NC(=O)C3CCCCC3)cccc21 [Compound I-126, (S)-N-(1-(1-(N-ethylsulfamoyl)-1,2,3,4-tetrahydroquinolin-5-ylamino)-1-oxo-3-phenylpropan-2-yl)cyclohexanecarboxamide] | 1 to 10 |  | > 10 |
| COCCNS(=O)(=O)c1ccc(NC(=O)[C@H](Cc2ccccc2)NC(=O)c2ccc(F)cc2)cn1 [Compound I-108, (S)-4-fluoro-N-(1-(6-(N-(2-methoxyethyl)sulfamoyl)pyridin-3-ylamino)-1-oxo-3-phenylpropan-2-yl)benzamide] | 0.05 to 1 | 0.05 to 1 |  |
| O=C(N[C@@H](Cc1ccccc1)C(=O)Nc1ccc(S(=O)(=O)NC23CC(C2)C3)cc1)c1cccc(F)c1 [Compound I-95, (S)-N-(1-(4-(N-bicyclo[1.1.1]pentan-1-ylsulfamoyl)phenylamino)-1-oxo-3-phenylpropan-2-yl)-3-fluorobenzamide] | 0.05 to 1 | 0.05 to 1 |  |
| O=C(N[C@@H](Cc1ccccc1)C(=O)Nc1ccc(S(=O)(=O)NC2CCC2)cc1)c1cccnc1 [Compound I-81, (S)-N-(1-(4-(N-cyclobutylsulfamoyl)phenylamino)-1-oxo-3-phenylpropan-2-yl)nicotinamide] | 0.05 to 1 | 0.05 to 1 |  |
| O=C(N[C@@H](Cc1ccccc1)C(=O)Nc1ccc(S(=O)(=O)NC2COC2)nc1)c1ccc(F)cc1 [Compound I-106, (S)-4-fluoro-N-(1-(6-(N-oxetan-3-ylsulfamoyl)pyridin-3-ylamino)-1-oxo-3-phenylpropan-2-yl)benzamide] | 0.05 to 1 | 0.05 to 1 |  |
| O=C(N[C@@H](Cc1ccccc1)C(=O)Nc1ccc(S(=O)(=O)NCCCN2CCOCC2)cn1)c1ccc(F)cc1 [Compound I-123, (S)-4-fluoro-N-(1-(5-(N-(3-morpholinopropyl)sulfamoyl)pyridin-2-ylamino)-1-oxo-3-phenylpropan-2-yl)benzamide] | 0.05 to 1 | 0.05 to 1 |  |
| CN(C(=O)c1ccc(F)cc1)[C@@H](Cc1cccnc1)C(=O)Nc1ccc(S(=O)(=O)NC2COC2)cc1 [Compound I-89, (S)-4-fluoro-N-methyl-N-(1-(4-(N-oxetan-3-ylsulfamoyl)phenylamino)-1-oxo-3-(pyridin-3-yl)propan-2-yl)benzamide] | 1 to 10 |  | > 10 |
| COCC(C)(C)NS(=O)(=O)c1ccc(NC(=O)[C@H](Cc2ccccc2)NC(=O)c2ccc(F)cc2)cc1OC [Compound I-149, (S)-4-fluoro-N-(1-(3-methoxy-4-(N-(1-methoxy-2-methylpropan-2-yl)sulfamoyl)phenylamino)-1-oxo-3-phenylpropan-2-yl)benzamide] | < 0.05 | 0.05 to 1 |  |
| CCNS(=O)(=O)c1ccc(NC(=O)[C@H](Cc2ccccn2)NC(=O)c2ccc(F)cc2)cc1 [Compound I-139, (S)-N-(1-(4-(N-ethylsulfamoyl)phenylamino)-1-oxo-3-(pyridin-2-yl)propan-2-yl)-4-fluorobenzamide] | 0.05 to 1 | 0.05 to 1 |  |
| O=C(N[C@@H](Cc1ccccc1)C(=O)Nc1ccc(S(=O)(=O)NCC(F)(F)F)cc1)c1ccc(F)cc1 [Compound I-23, (S)-4-fluoro-N-(1-oxo-3-phenyl-1-(4-(N-(2,2,2-trifluoroethyl)sulfamoyl)phenylamino)propan-2-yl)benzamide] | < 0.05 | 0.05 to 1 |  |
